The values below come from patent US6861390B2, “Derivatives of UK-2A” (priority 2001, dated 2005).

SMILES strings stand for the structures. Where only a bound is given, the exact number is not on record here.

In experiment [1] the test system is Puccinia recondita (PUCCRT). As to the kind of experiment: Brown Rust of Wheat, whole plant 24 Hour Protectant (T5). As to conditions: wheat (cultivar Yuma), sprayed at 100 ppm, inoculated after 24 hours, read-out: T5 PUCCRT in vivo 1 Day Protectant, control of fungal infection.
Experiment [2] deals with Phytophthora infestans (PHYTIN). The experiment can be described thus: microbe, parasite or virus in culture. It counts as cell-based. As to conditions: in Secale cereale, read-out: T8 PHYTIN in vitro Growth Inhibition.
For experiment [3], the system named is Leptosphaeria nodorum (LEPTNO). As to the kind of experiment: Glume Blotch of Wheat, whole plant 24 Hour Protectant (T2). As to conditions: Parastagonospora nodorum; wheat (cultivar Yuma), sprayed at 100 ppm, inoculated after 24 hours; read-out: T2 LEPTNO in vivo 1 Day Protectant, control of fungal infection.
The subject of experiment [4] is Rhizoctonia solani (RHIZSO). The experiment can be described thus: microbe, parasite or virus in culture. As to conditions: read-out: T10 RHIZSO in vitro Growth Inhibition. It counts as cell-based.
The subject of experiment [5] is Magnaporthe grisea (Pyricularia oryzae, PYRIOR). As to the kind of experiment: microbe, parasite or virus in culture. It counts as cell-based. As to conditions: read-out: T9 PYRIOR in vitro Growth Inhibition.
Experiment [6] relates to Mycosphaerella graminicola (Septoria tritici, SEPTTR). The experiment can be described thus: microbe, parasite or virus in culture. Type of experiment: cell-based. As to conditions: Zymoseptoria tritici, read-out: T11 SEPTTR in vitro Growth Inhibition.
The test system of a further experiment is Ustilago maydis (USTIMA). The experiment can be described thus: microbe, parasite or virus in culture. Type of experiment: cell-based. As to conditions: Mycosarcoma maydis, read-out: T12 USTIMA in vitro Growth Inhibition.
In experiment [7] the test system is Septoria tritici (SEPTTR). As to the kind of experiment: Leaf Blotch of Wheat, whole plant 24 Hour Protectant (T6). As to conditions: Zymoseptoria tritici; wheat (cultivar Monon), sprayed at 100 ppm, inoculated after 24 hours; read-out: T6 SEPTTR in vivo 1 Day Protectant, control of fungal infection.
The test system of experiment [8] is Phytophthora infestans (PHYTIN). The experiment can be described thus: whole plant or invertebrate. As to conditions: in Solanum lycopersicum, 24 h, read-out: T3 PHYTIN in vivo 1 Day Protectant, control of fungal infection.
Experiment [9] has as its system Stagonospora nodorum (Leptosphaeria nodorum, LEPTNO). The experiment can be described thus: microbe, parasite or virus in culture. Type of experiment: cell-based. As to conditions: Parastagonospora nodorum, read-out: T7 LEPTNO in vitro Growth Inhibition.
The subject of experiment [10] is Erysiphe graminis (ERYSGT). As to the kind of experiment: Powdery Mildew of Wheat, whole plant 24 Hour Protectant (T1). As to conditions: Blumeria graminis, in Triticum aestivum, read-out: T1 ERYSGT in vivo 1 Day Protectant, control of fungal infection.

For the compound `COCC(C)OCOc1c(OC)ccnc1C(=O)N[C@H]1COC(=O)[C@H](Cc2ccccc2)[C@@H](OC(=O)C(C)C)[C@H](C)OC1=O` (stereo partly shown) [Compound 12], the pest or weed control at 100 ppm in experiment [1] is 75 to 100%; in experiment [3], 75 to 100%; in [7], 75 to 100%; in experiment [8], below 25%; in experiment [10], 25 to 74%. The inhibition at 25 ppm in [2] is below 80%; in [4], above 80%; in experiment [5], above 80%; in experiment [6], above 80%; with Ustilago maydis (USTIMA) it was above 80%; in [9], above 80%.

Regarding `COc1ccnc(C(=O)N[C@H]2COC(=O)[C@H](Cc3ccccc3)[C@@H](OC(=O)C(C)C)[C@H](C)OC2=O)c1OCOCCOC(C)=O` [Compound 17], the pest or weed control at 100 ppm in experiment [1] was 75 to 100%; in experiment [3] it was 75 to 100%; in [7], 75 to 100%; in [8], below 25%; in [10], below 25%. Besides, the inhibition at 25 ppm in experiment [2] was below 80%; in experiment [4], above 80%; in experiment [5] it was below 80%; in experiment [6] it was above 80%; in the experiment on Ustilago maydis (USTIMA) it was below 80%; in experiment [9] it was above 80%.

Consider `CCC(=O)OCOc1c(OC)ccnc1C(=O)N[C@H]1COC(=O)[C@H](Cc2ccccc2)[C@@H](OC(=O)C(C)C)[C@H](C)OC1=O` [Compound 21], for which the pest or weed control at 100 ppm was 75 to 100% in [1]; 75 to 100% in experiment [3]; 75 to 100% in experiment [7]; below 25% in experiment [8]; 25 to 74% in experiment [10]. In addition, the inhibition at 25 ppm is below 80% in experiment [2]; below 80% in experiment [4]; above 80% in [5]; above 80% in experiment [6]; below 80% with Ustilago maydis (USTIMA); above 80% in [9].

As for `COCC(=O)OCOc1c(OC)ccnc1C(=O)N[C@H]1COC(=O)[C@H](Cc2ccccc2)[C@@H](OC(=O)C(C)C)[C@H](C)OC1=O` [Compound 30], the pest or weed control at 100 ppm is 75 to 100% in [1]; 75 to 100% in experiment [3]; 75 to 100% in experiment [7]; below 25% in [8]; 75 to 100% in [10]. In addition, the inhibition at 25 ppm in [2] is below 80%; in [4] it was above 80%; in experiment [5] it was above 80%; in experiment [6] it was below 80%; with Ustilago maydis (USTIMA) it was above 80%; in [9] it was above 80%.

As for `COC(=O)CCC(=O)OCOc1c(OC)ccnc1C(=O)N[C@H]1COC(=O)[C@H](Cc2ccccc2)[C@@H](OC(=O)C(C)C)[C@H](C)OC1=O` [Compound 32], the pest or weed control at 100 ppm in experiment [1] is 75 to 100%; in experiment [3] it was 75 to 100%; in [7], 75 to 100%; in [8], below 25%; in experiment [10], 25 to 74%. For the same compound, the inhibition at 25 ppm in experiment [2] is below 80%; in experiment [4], below 80%; in experiment [5] it was above 80%; in [6] it was below 80%; with Ustilago maydis (USTIMA), below 80%; in experiment [9], above 80%.

For `COc1ccnc(C(=O)N[C@H]2COC(=O)[C@H](Cc3ccccc3)[C@@H](OC(=O)C(C)C)[C@H](C)OC2=O)c1OCOC(=O)C1CCCO1` (stereo partly shown) [Compound 34], the pest or weed control at 100 ppm was 75 to 100% in experiment [1]; 75 to 100% in [3]; 75 to 100% in [7]; below 25% in experiment [8]; 25 to 74% in experiment [10]. Also, the inhibition at 25 ppm was below 80% in [2]; below 80% in [4]; below 80% in experiment [5]; below 80% in experiment [6]; below 80% in the experiment with Ustilago maydis (USTIMA); above 80% in experiment [9].

With `CCCOCC(=O)OCOc1c(OC)ccnc1C(=O)N[C@H]1COC(=O)[C@H](Cc2ccccc2)[C@@H](OC(=O)C(C)C)[C@H](C)OC1=O` [Compound 35], the pest or weed control at 100 ppm in experiment [1] is 75 to 100%; in experiment [3] it was 75 to 100%; in experiment [7] it was 75 to 100%; in [8], below 25%; in experiment [10], 25 to 74%. Also, the inhibition at 25 ppm is below 80% in experiment [2]; above 80% in experiment [4]; above 80% in experiment [5]; above 80% in experiment [6]; below 80% with Ustilago maydis (USTIMA); above 80% in experiment [9].

`COc1ccnc(C(=O)N[C@H]2COC(=O)[C@H](Cc3ccccc3)[C@@H](OC(=O)C(C)C)[C@H](C)OC2=O)c1OCOC(=O)COC(C)C` [Compound 36]: the pest or weed control at 100 ppm in [1] is 75 to 100%; in experiment [3], 75 to 100%; in [7] it was 75 to 100%; in experiment [8], below 25%; in experiment [10], below 25%. The inhibition at 25 ppm was below 80% in [2]; below 80% in experiment [4]; above 80% in experiment [5]; above 80% in experiment [6]; below 80% in the experiment with Ustilago maydis (USTIMA); above 80% in experiment [9].

Regarding `CCCCOCC(=O)OCOc1c(OC)ccnc1C(=O)N[C@H]1COC(=O)[C@H](Cc2ccccc2)[C@@H](OC(=O)C(C)C)[C@H](C)OC1=O` [Compound 37], the pest or weed control at 100 ppm was 75 to 100% in experiment [1]; 75 to 100% in experiment [3]; 75 to 100% in experiment [7]; below 25% in experiment [8]; 25 to 74% in experiment [10]. Further, the inhibition at 25 ppm in experiment [2] was below 80%; in experiment [4], below 80%; in experiment [5], above 80%; in [6] it was above 80%; in the experiment with Ustilago maydis (USTIMA) it was above 80%; in experiment [9], above 80%.

As for `COc1ccnc(C(=O)N[C@H]2COC(=O)[C@H](Cc3ccccc3)[C@@H](OC(=O)C(C)C)[C@H](C)OC2=O)c1OCOC(=O)COCC(C)C` [Compound 38], the pest or weed control at 100 ppm is 75 to 100% in experiment [1]; 75 to 100% in experiment [3]; 75 to 100% in [7]; below 25% in experiment [8]; 25 to 74% in [10]. Also, the inhibition at 25 ppm was below 80% in experiment [2]; below 80% in experiment [4]; above 80% in experiment [5]; above 80% in experiment [6]; below 80% in the experiment on Ustilago maydis (USTIMA); above 80% in [9].

As to `CCC(C)OCC(=O)OCOc1c(OC)ccnc1C(=O)N[C@H]1COC(=O)[C@H](Cc2ccccc2)[C@@H](OC(=O)C(C)C)[C@H](C)OC1=O` (stereo partly shown) [Compound 39], the pest or weed control at 100 ppm was 75 to 100% in experiment [1]; 75 to 100% in experiment [3]; 75 to 100% in [7]; below 25% in [8]; 25 to 74% in experiment [10]. For the same compound, the inhibition at 25 ppm in experiment [2] was below 80%; in experiment [4], below 80%; in experiment [5], above 80%; in [6], above 80%; in the experiment on Ustilago maydis (USTIMA), below 80%; in experiment [9] it was above 80%.

Broadly, the inhibition is the share of the control response that was lost under treatment.
